According to patent US5441949A, “Carbapenem antibiotic compounds” (Zeneca Limited, priority 1992, dated 1995):
Where a name gives a salt, the structure may show the parent alone.

Legend:
[1] = tested on: Enterobacter cloacae P99-; test: antibacterial activity in vitro, agar-dilution MIC, Diagnostic Sensitivity Test, inoculum 10^4 CFU/spot; type: cell-based
[2] = tested on: S. aureus Oxford; test: as above; type: cell-based; details: Staphylococcus aureus
[3] = tested on: P. morganii I + 001; test: as above; type: cell-based; details: Morganella morganii
[4] = tested on: E. coli DCO; test: microbe, parasite or virus in culture; details: Escherichia coli
Description: The antibacterial activity is described in terms of the minimum inhibitory concentration (MIC) determined by the agar-dilution technique with an inoculum size of 10^4 CFU/spot.

[5] = tested on: B. fragilis AMP S; test: antibacterial activity in vitro, agar-dilution MIC, Diagnostic Sensitivity Test, inoculum 10^4 CFU/spot; type: cell-based; details: Bacteroides fragilis

SMILES: C[C@@H](O)[C@H]1C(=O)N2C(C(=O)O)=C(S[C@@H]3CN[C@H](C(=O)Nc4cc(C(=O)O)c5ncccc5c4)C3)[C@H](C)[C@H]12 [Example 1, (1R,5S,6S,8R,2'S,4'S) 2-(2-(8-Carboxyquinol-6-ylcarbamoyl)pyrrolidin-4-ylthio)-6-(1-hydroxyethyl)-1-methylcarbapenem-3-carboxylic Acid Disodium Salt]
- MIC [1]: 0.03 µg/mL
- MIC [2]: 0.13 µg/mL
- MIC [3]: 0.03 µg/mL
- MIC [4]: 0.03 µg/mL
- MIC [5]: 0.5 µg/mL
